Columns and labels:
[1] = test system: T. cruzi INC-5 bloodstream trypomastigotes; experiment: microbe, parasite or virus in culture; conditions: Trypanosoma cruzi, 24 h, read-out: LC50 Bloodstream Trypomastigotes T. cruzi INC-5
Text: (§1) For biological evaluation, the compounds Z2 (ZINC9873043), Z3 (ZINC9870651), Z5 (ZINC9715287), and Z6 (ZINC9861447) were selected and purchased from Molport https://www.molport.com (accessed on: 03 March 2018). For evaluation of trypanocidal activity of the selected compounds, two strains (NINOA and INC-5) in the epimastigote or trypomastigote stage of T. cruzi were used. Each strain was used to infect CD-1 mice (18–20 g) intraperitoneally with a concentration of 1 × 10^6 trypomastigotes/mL of blood. In the maximum peak of parasitemia, blood was obtained by cardiac puncture using heparin as an anticoagulant. The parasite concentration was then adjusted with isotonic saline (0.85% NaCl), and 90 μL of blood was used to achieve a concentration of 1 × 10^6 trypomastigotes/mL of blood. A 10 μL sample of each compound was evaluated in 96-well plates. The treatments performed consisted of a negative control, which contained dimethylsulfoxide (DMSO 2.5%) and the four compounds selected from virtual screening. […] Once the selected compounds were added after being homogenized with blood, the plates were incubated at 4 °C for 24 h. Once the incubation time had elapsed, the plates were kept at room temperature for 30 min, and then an aliquot of 5 μL was taken from each well, a fresh preparation was made, and the viable trypomastigotes were counted using the Pizzi method. A calculation of the number of viable trypomastigotes per mL of blood was carried out, and the survival percentages were obtained taking 100% of the negative control. Each test was done in triplicate. […] The LC50 values were determined using Probit statistical analysis of the dose-response, and the results were expressed as the mean of the standard deviation. The results were later converted to micromolar units.

[2] = test system: T. cruzi INC-5 epimastigotes; experiment: microbe, parasite or virus in culture; conditions: for CC50: Trypanosoma cruzi, read-out: LC50 Epimastigotes T. cruzi INC-5
Text: as §1

epimastigote = test system: epimastigote; parameters: method as in PMID 20961766; conditions: read-out: IC50 replication of the epimastigote; cited from earlier work
[3] = biological target: cysteine proteases from epimastigotes of Trypanosoma cruzi strain INC-5; experiment: Enzyme inhibition, protease extract, substrate Z-Phe-Arg-MCA; format: biochemical; conditions: protein extract of INC-5 epimastigotes, Z-Phe-Arg-MCA 5 µM, compounds 6.25–200 µM, pH 6.5
Protocol: T. cruzi epimastigotes of the INC-5 strain were used to obtain a protein extract quantified by the Bradford method. Evaluation of the activity was carried out using the synthetic fluorogenic peptide Z-Phe-Arg-MCA as a substrate at 5 µM, with 1 μg of the enzyme extract and the corresponding compounds (Z2, Z3, Z5, and Z6) at different concentrations (6.25–200 µM) using a reaction buffer (50 mM Na2HPO4, 100 mM NaCl, 5 mM EDTA, 2.5 mM dithiothreitol; pH 6.5) at room temperature. As a negative control of enzyme inhibition, the substrate without compounds was evaluated with 2% DMSO (concentration corresponding to the highest dilution of the compounds). Hydrolysis of the substrate was monitored in a continuous assay for 1 h in the Spectramax M5 spectrofluorometer (Molecular Devices) at 380 nm excitation and 440 nm emission. The mean of fluorescence changes was normalized taking the control (without inhibitor) as 100%. The IC50 values were determined from semilog concentration-response plots using the nonlinear curve-fitting method.

[4] = test system: trypomastigotes of T. cruzi of the Tulahúen strain in mouse fibroblasts (L929); parameters: method as in Ferreira et al. (2010) and Pinto et al. (2017); conditions: infected L929 fibroblasts, ref Ferreira et al. (2010) and Pinto et al. (2017); cited from earlier work
[5] = test system: T. cruzi NINOA bloodstream trypomastigotes; experiment: microbe, parasite or virus in culture; conditions: Trypanosoma cruzi, 24 h, read-out: LC50 Bloodstream Trypomastigotes T. cruzi NINOA
Text: as §1

[6] = activity previously reported for the compound; cited from earlier work

| Structure (SMILES) | CC50 [1] [µM] | CC50 [2] [µM] | IC50 (epimastigote) [µM] | LC50 Epimastigotes T. cruzi INC-5 ([2]; half maximal lytic concentration, epimastigotes, INC-5 strain) | IC50 [3] [µM] | IC50 [4] [µM] | CC50 [5] [µM] | Activity Reported [6] |
| --- | --- | --- | --- | --- | --- | --- | --- | --- |
| O=C(Cn1ccnc1[N+](=O)[O-])NCc1ccccc1 [Bzn, benznidazole, reference compound] | 225 ± 26.5 | 9.64 ± 4.2 | 1.8 | – | – | – | – | – |
| Clc1ccc2[nH]c3c(NCCCN4CCOCC4)ncnc3c2c1 [S1, 8-chloro-N-(3-morpholinopropyl)-5H-pyrimido[5,4-b]-indol-4-amine, reference compound] | > 250 | > 250 | – | did not show an effect | > 200 | 2.5 | – | – |
| Cc1ccc(NC(=O)CCC(=O)N2CCC(c3ccccc3)=N2)cc1S(=O)(=O)N1CCCCC1 [Z2] | > 250 | 239 ± 9.3 | – | – | > 200 | – | > 250 | Inhibitor of cannabinoid receptor type 2 |
| C[C@H]1CCc2sc(-c3nnc(SCC(=O)N4N=C(c5ccco5)C[C@@H]4c4ccco4)o3)cc2C1 [Z3] | > 250 | > 250 | – | – | 84.4 | – | > 250 | – |
| COc1ccc([C@H]2CC(c3ccc4ccccc4c3)=NN2C(=O)Cn2cnc3ccsc3c2=O)cc1 [Z4] | – | – | – | – | – | – | – | Amine oxidase inhibitor |
| Cc1nnc(SCC(=O)N2N=C(c3ccc4ccccc4c3)C[C@@H]2c2ccccc2)n(N)c1=O [Z5] | 185 ± 8.5 | 36.3 ± 9.9 | – | – | 56.2 | – | 166 ± 14.5 | Amine oxidase inhibitor |
| Cc1ccc(C2=NN(C(=O)CN3C(=O)N[C@](C)(c4ccc(F)c(F)c4)C3=O)[C@H](c3ccco3)C2)cc1 [Z6] | > 250 | > 250 | – | – | 50.4 | – | > 250 | Amine oxidase inhibitor |
| O=C(CCC(=O)N1CCC(c2ccccc2)=N1)N1CCN(S(=O)(=O)c2ccc3c(c2)CCC3)CC1 [Z7] | – | – | – | – | – | – | – | Inhibitor of aldo keto reductases |
| CN1N=C(C(=O)N2CCc3c(c(C(=O)N4CCOCC4)nn3CCCc3ccccc3)C2)CCC1=O [Z8] | – | – | – | – | – | – | – | Inhibitor of cathepsin S |
| C[C@@H](Sc1nnc(C2CCCCC2)o1)C(=O)N1N=C(c2ccc(Cl)cc2)C[C@@H]1c1ccco1 [Z10] | – | – | – | – | – | – | – | Amine oxidase inhibitor |
| C[C@H](/C=C/C(=O)C=O)NC(=O)[C@@H](Cc1ccccc1)NC(=O)OCc1ccccc1 [compound 186, reference compound] | – | – | – | – | – | – | – | Cz inhibitor |

Source: PMC6479639, “Structure-Based Virtual Screening and In Vitro Evaluation of New Trypanosoma cruzi Cruzain Inhibitors” (International Journal of Molecular Sciences, 2019)
